Test results reported in patent publication US7723289B2, “PIF tetrapeptides” (BioIncept, LLC, priority 2003, dated 2010).
Read-outs that look alike come from different tables or passages of the source.

Experiments:
CD3 = CD3 expression in PBMC (flow cytometry, MAbCD3-PE); assay type: cell-based; settings: PBMC exposed 3 days, 2-200 nM
Method: Fluorescent PIF peptides bind to immune cell membranes following activation. […] CD69 is expressed during activation of lymphocytes and monocytes, and is a marker of NK cells activation. CD25 is the receptor for IL-2, and a known activation marker as well. […] The expression of CD3 in PBMC was examined following exposure for 3 days to sPIF-1(15) (SEQ ID NO:13) (2-200 nM) using 20 ul MAbCD3-PE (BD).

PBMC [1] = assay: FITC-labeled PIF binding to PBMC subpopulations (flow cytometry); set-up: species or system human
Method: Expression of PIF-1(15) (SEQ ID NO:1), receptor following PHA induced PBMC proliferation CD-4 T cells; CD-8 T cells; NK cell and B cells (unstimulated-top); (PHA stimulated-bottom). Flow cytometry analysis of PBMC following exposure to FITC sPIF-1(15) (SEQ ID NO:13) % expression was determined in PBMC subtypes before and after exposure to 1 ug/ml PHA for 24 hours.
Human PBMC were isolated by the Ficoll method. FITC-labeled nPIF-115 (SEQ ID NO: 1) and (FITC)-labeled scrPIF-1 (SEQ ID NO:5) and match-size irrelevant peptide (FITC)-labeled negative controls negPIF-1(15) (SEQ ID NO:11), were dissolved in PBS at concentrations ranging from 0.75 to 48.19 μM, and were incubated with 500,000 lymphocytes for 1 h at room temperature. The cells were washed 6 times with PBS and resuspended in 500 μl of the same buffer. T-cells and monocytes identification was performed in independent experiments by incubation with anti-CD3 and anti-CD14 antibody-phycoerithryn (PE) labeled. nPIF-115 (SEQ ID NO: 1) binding to PBMC was determined by flow cytometry. In addition, rosettes formed by T cell-platelets were detected by flow cytometry using anti-CD3 antibody-PE and anti-CD41a antibody-FITC (all antibodies were from Pharmingen Inc.).
Using flow cytometry fluoroscein-labeled sPIF-115 (SEQ ID NO: 13) binding to immune cells was examined on resting PBMC.

PBMC [2] = settings: PHA +
Method: sPIF-115 (SEQ ID NO:13) effect was tested on a patient with over 14 miscarriages and no live birth. Their immune cells were examined in the non-pregnant state, by exposure to sPIF-115 (SEQ ID NO:13) using PBMC preparations. Induction of PIF receptor expression, and binding to lymphocytes were used to characterize the treated cells.

PBMC [3] = assay: Cytokine release (ELISA) and intracellular cytokine staining in stimulated PBMC; assay type: cell-based, human
Method: FIG. 2. sPIF-1(15) (SEQ ID NO:13) increases the percentage of PBMC that contain TH2 type cytokines (IL10, IL 4), while scrPIF-1(15) (SEQ ID NO: 5) has a TH1 bias (INFgamma). Isolated PBMC were stimulated by PHA (1 ug/ml) and cultured 2-4 days with sPIF-1(15) (SEQ ID NO:13) or scrPIF-1(15) (SEQ ID NO:5). 30 nM. PBMC cytokines content was determined by specific staining using flow cytometry. Effect of PIF-1 on cellular content of cytokines of PBMC was examined up to 96 hours and a time dependent pattern emerged, not replicated by scrambled or irrelevant peptide. Measurements were carried out in two separate stages. At the cellular induction/synthetic level, lymphocytes were cultured in the presence of PHA for various periods with or without PIF-1 then processed for intracellular immunostaining (activation by PMA plus ionomycin in the presence of monenisn and berfeldin, followed by permeabilization and immunostaining) for the detection of nascent cytokines.
Human PBMC were isolated and cultured for 2-4 days in AIM-V medium containing 0 to 200 nM of sPIF-115 (SEQ ID NO:13) or scrPIF-115 (SEQ ID NO:5). The following proliferation-activating agents were used: anti-CD3 antibody (10 μg/ml solution) bound on the plate wells in the presence or absence of IL-2 at 10 μg/ml; phytohemmaglutinin (PHA) at 4 μg/ml. The effects of sPIF-115 (SEQ ID NO:13) or scrPIF-115 (SEQ ID NO:5) peptides were also determined by the mixed lymphocyte reaction (MLR) after 3 days in heterologous cultures of PBMC with cells previously treated with mitomycin C (100 μg/ml for 4 h). Cell proliferation was determined by tritiated thymidine incorporation (16 h) of 72-h culture. Cytokine release (IL-4, IL-10, IFN-γ and TNF-α) into culture supernatants was determined at 72 h of culture by ELISA (R&D System).

mice = assay: Subcutaneous osmotic mini-pump administration in mated mice, implantation sites; assay type: in vivo
Method: Preliminary in vivo assessment of PIF-1 antagonist by using PIF1scr/amide was performed. […] Following the protocol below: (Dr Hoberman, Argus, Inc) PIF-1scr/amide was introduced two days after estrus to mice through an osmotic mini-pump (Alzet Model 2001; 1 ul/hr for 7 days) containing either 0.9% saline or 150 ug or 800 ug PIF-1scr/amide/day release in saline. The pumps were inserted subcutaneously under ketamine/xylazine anesthesia. Female mice were placed with male mice on the third day afternoon of the expected estrus. Four different groups 5 each were studied, low and high dose PIF-1scr/amide, saline control, and one group with PIF-1. Mating was confirmed by the presence of sperm in the vagina or a copulatory plug the next morning. Pregnancy (or lack thereof) was determined by sacrificing on day 10 after breeding and the uterine horns were examined for implantation sites by using Chicago Blue solution.
The group treated with PIF-1 160 ug/kg/day appeared to have increased number of implantation sites and this was associated with a higher rate of fetal survival compared to vehicle treated controls.

[4] = PBMC within 24 hrs of PHA activation
[5] = 160 ug/kg/day, compared to vehicle treated controls

MVRIKPGSANKPSDD [sPIF-1(15)]
increase in CD3 receptor expression (CD3): 215-420%
fluorescence-labeled peptide binding to human lymphocytes (PBMC [1]; FIG. 1(A)): dose dependent manner
B cells positive for fluorescent PIF binding (PBMC [1]; [4]): > 90%
T lymphocytes positive for fluorescent PIF binding (PBMC [1]; [4]): 60-80%
binding to platelets (PBMC [1]; basal state): not to platelets
binding to monocytes (PBMC [1]; basal state, unstimulated PBMC): binds all monocytes
binding to NK cells (PBMC [1]; even after several days in culture with PHA): did not appear to bind
binding site expression on resting T cells (CD4+, CD8+), B cells (CD19+), NK cells (CD56) (PBMC [1]; resting PBMC): very low
(PIF+/CD4+)/CD4+ (PBMC [2]; Control specimen): 22.1
(PIF+/CD4+)/CD4+ difference in parentheses (PBMC [2]; Control specimen): 0%
(PIF+/CD8+)/CD8+ (PBMC [2]; Control specimen): 24.5
(PIF+/CD19+)/CD19+ (PBMC [2]; Control specimen): 46.2
(PIF+/CD4+)/CD4+ (PBMC [2]; Patient specimen): 16.2
(PIF+/CD8+)/CD8+ (PBMC [2]; Patient specimen): 16.3
(PIF+/CD19+)/CD19+ (PBMC [2]; Patient specimen): 48.2
(PIF+/CD4+)/CD4+ difference in parentheses (PBMC [2]; Patient vs control): −27%
(PIF+/CD8+)/CD8+ difference in parentheses (PBMC [2]; Patient vs control): −33%
percentage of PBMC that contain TH2 type cytokines (IL10, IL 4) (PBMC [3]; PHA 1 ug/ml, 2-4 days, 30 nM, flow cytometry): increases
IFN-γ decrease (PBMC [3]; one day after IL-10 increase): 30%
increase in number of IL-10 secreting cells (PBMC [3]; starting at day 2, peaking at days 3-4): 50-60%
increase of TH2/TH1 cytokine ratio in PBMC (PBMC [3]; stimulated PBMC): more than five-fold
IFN-γ release in culture supernatants (PBMC [3]; stimulated PBMC, 72 h, ELISA): significantly decreased
IL-4 release (PBMC [3]; stimulated PBMC, 72 h, ELISA): does not have a significant effect
IL-10 release in culture supernatants (PBMC [3]; stimulated PBMC, 72 h, ELISA): significantly increased
TNF-α release (PBMC [3]; stimulated PBMC, 72 h, ELISA): does not have a significant effect
number of implantation sites (mice; [5]): increased
rate of fetal survival (mice; [5]): higher rate
effect on maternal body weights (mice; all tested groups): no effect
effect on mouse fetuses number (mice; early pregnancy): no significant effect
toxic effects following administration in early pregnancy (mice; pregnant mice): no toxic effects
